Experiments:
hKv7.2/hKv7.3 [1] = target: T1, hKv7.2/hKv7.3 (Homo sapiens, UniProt O43525+O43526); test: Automated whole cell patch-clamp functional test of HEK-hKv7.2/hKv7.3 cell line; type: cell-based; conditions: stable HEK-hKv7.2/hKv7.3 cell line
T1 construct: P2A self-cleaving peptide (between Kv7.3 and Kv7.2; the remnant would stay on the upstream protein) (C); expressed in transfected cells
Protocol: (§1) A synthesized cDNA fragment encoding human Kv7.3 and human Kv7.2 separated by a P2A sequence was inserted into the pcDNA5/FRT/TO vector using the BamHI and XhoI restriction sites. The construct was then transfected into HEK Flp-In 293 cells using Lipofectamine2000. The transfected cells were grown for 48 hours in DMEM containing 10% (v/v) FBS and 1% PenStrep and subsequently maintained under selection in DMEM containing 10% (v/v) FBS, 1% PenStrep and 200 ug/mL Hygromycin B at 37° C. in a humidified atmosphere of 5% CO2.

hKv7.2/hKv7.3 [2] = target: T1, hKv7.2/hKv7.3; test: Thallium influx assay for potassium channel activation; type: cell-based; conditions: HEK-hKv7.2/hKv7.3 cells; FLIPR Potassium Assay kit; AUC readout normalized to a reference compound
Protocol: as §1
The thallium influx assay for potassium channel activation was performed analogously to a published procedure (C. D. Weaver, et al., J Biomol Screen 2004, 9, 671-677) using the FLIPR Potassium Assay kit (Molecular Devices). HEK-hKv7.2/hKv7.3 cells were plated onto 96-well, black-walled, clear-bottomed culture plates (Corning, Acton, Mass., USA) at a density of 80,000 cells/well (100 μl/well) if the cells were assayed the following day, or 40,000 cells/well (100 μl/well) if the cells were assayed two days after seeding.
On the assay day, the medium was removed after which 50 uL/well of test compound diluted to 2× final concentration in HBSS containing 20 mM HEPES, and 50 uL/well of 2× dye load buffer were added. The cells were then incubated for 60 min at room temperature in the dark. Chloride-free stimulation buffer containing Tl^+ and K^+ at 5× final concentration (5× concentration: 5 mM in both cases) and test compound at 1× final concentration, were prepared during the incubation. The cells were then assayed in a FDSS7000EX Functional Drug Screening System (Hamamatsu). Following 60 sec of baseline fluorescence signal reading at 0.1 Hz, and 10 sec at 1 Hz, 25 uL/well of stimulation buffer were added and the fluorescence continuously measured for 50 sec at 1 Hz followed, by 4 min at 0.1 Hz. Compound effect was quantified using AUC as readout and normalized to a reference compound, which was included on each plate.

| SMILES | effect on Kv7-current (hKv7.2/hKv7.3 [1]) | EC50 (hKv7.2/hKv7.3 [2]) |
| --- | --- | --- |
| CCOC(=O)Nc1ccc(NCc2ccc(F)cc2)cc1N [Retigabine, N-(2-amino-4-(4-fluorobenzylamino)-phenyl) carbamic acid ethyl ester] | potentiated | – |
| O=C1c2ccccc2C(Cc2ccncc2)(Cc2ccncc2)c2ccccc21 [XE991] | sensitive | – |
| CC(O)(CC(=O)N[C@@H](COC(F)F)c1cccc(OC(F)F)c1)CC(F)(F)F (single isomer, unassigned) [Example 12b] | – | 6.2 µM |
| O=C(CC1(O)CC(F)(F)C1)N[C@@H](COC1CC1)c1cccc(OC(F)F)c1 [Example 29, (R)—N-(2-cyclopropoxy-1-(3-(difluoromethoxy)phenyl)ethyl)-2-(3,3-difluoro-1-hydroxycyclobutyl)acetamide] | – | 5.4 µM |
| CC[C@H](NC(=O)CC1(O)CC(F)(F)C1)c1cccc(OC(F)(F)F)c1 [Example 33, (S)-2-(3,3-difluoro-1-hydroxycyclobutyl)-N-(1-(3-(trifluoromethoxy)-phenyl)propy) acetamide] | – | 2.1 µM |
| O=C(CC(O)C1CC(F)(F)C1)N[C@@H](COC(F)F)c1cccc(OC(F)(F)F)c1 (single isomer, unassigned) [Example 6b] | – | 1.1 µM |
| CCC1(C(O)CC(=O)N[C@@H](COC(F)F)c2cccc(OC(F)F)c2)CC1 (single isomer, unassigned) [Example 8b] | – | 1.2 µM |
| O=C(CC1(O)CC(F)(F)C1)N[C@@H](CCC(F)F)c1cccc(OC(F)F)c1 [Example 32, (S)-2-(3,3-difluoro-1-hydroxycyclobutyl)-N-(1-(3-(difluoromethoxy)phenyl)-4,4-difluorobutyl)acetamide] | – | 2.5 µM |
| CC(O)(CC(=O)N[C@@H](COC(F)F)c1cccc(OC(F)(F)F)c1)C1CC1 (single isomer, unassigned) [Example 11a] | – | 5.4 µM |
| CC1(C)CC(C(O)CC(=O)N[C@@H](COC(F)F)c2cccc(OC(F)F)c2)C1 (single isomer, unassigned) [Example 15b] | – | 0.65 µM |
| CC1(C)CC(C(O)CC(=O)N[C@@H](COC(F)F)c2cccc(OC(F)F)c2)C1 (single isomer, unassigned) [Example 15a] | – | 3.7 µM |
| CC(C)(C)[C@@H](O)CC(=O)N[C@@H](CCC(F)F)c1cccc(OC(F)F)c1 [Example 21, (S)—N—((S)-1-(3-(difluoromethoxy)phenyl)-4,4-difluorobutyl)-3-hydroxy-4,4-dimethylpentanamide] | – | 1 µM |
| CC(C)C(C)(O)CC(=O)N[C@@H](COC(F)F)c1cccc(OC(F)F)c1 (single isomer, unassigned) [Example 14a] | – | 5.2 µM |
| COC[C@H](NC(=O)C[C@@](C)(O)C1(F)CC1)c1cccc(OC(F)(F)F)c1 (single isomer, unassigned) [Example 36b] | – | 16 µM |
| CCC[C@H](NC(=O)C[C@H](O)C(C)(C)C)c1cccc(OC(F)F)c1 [Example 20, (S)—N—((S)-1-(3-(difluoromethoxy)phenyl)butyl)-3-hydroxy-4,4-dimethylpentanamide] | – | 1.5 µM |
| CC(O)(CC(=O)N[C@@H](COC(F)F)c1cccc(OC(F)(F)F)c1)C1(F)CC1 (single isomer, unassigned) [Example 10b] | – | 4.1 µM |
| O=C(CC1(O)CC(F)(F)C1)N[C@@H](COC1CC1)c1cccc(OC(F)(F)F)c1 [Example 28, (R)—N-(2-cyclopropoxy-1-(3-(trifluoromethoxy)phenyl)ethyl)-2-(3,3-difluoro-1-hydroxycyclobutyl)acetamide] | – | 3.2 µM |
| O=C(CC1(O)CC(F)(F)C1)N[C@@H](COC(F)(F)F)c1cccc(OC(F)F)c1 [Example 30, (R)-2-(3,3-difluoro-1-hydroxycyclobutyl)-N-(1-(3-(difluoromethoxy)phenyl)-2-(trifluoromethoxy)ethyl)acetamide] | – | 1.8 µM |

Reference: patent US11548849B2, “Alcohol derivatives as KV7 potassium channel openers” (H. Lundbeck A/S, priority 2019, dated 2023)
